Assay results as given in PMC11558998, “Lipophilic bisphosphonates reduced cyst burden and ameliorated hyperactivity of mice chronically infected with Toxoplasma gondii” (mBio, 2024).

Assays:
[1] = system: hyperactivity of Balb/c mice chronically infected with Pru-GFP; experiment: CageDot continuous monitoring of mouse activity during chronic infection; conditions: 1 mg/kg/day i.p. 16 days, 15 dpt and 2 wpt
Method: At this time, the remaining mice were injected i.p. daily for 16 consecutive days with 200 µL solvent (10% Kolliphor HS-15) or compounds dissolved in 10% HS-15. […] Mice were euthanized humanely 2 weeks after the final injection.
Mice were monitored during the infection using the CageDot ([30], [31]), which detects vibrations. […] Data are collected at a 100 Hz sampling rate (each second, 100 data points were collected).

[2] = system: RH-RFP tachyzoites in Swiss Webster mice; conditions: RH parasites; cited from earlier work
[3] = system: ex vivo bradyzoites of Me49-RFP from brains of chronically infected mice; experiment: Ex vivo bradyzoite viability assay, Me49-RFP; type: cell-based, Toxoplasma gondii; conditions: inhibitors 4 hours then drug-free 14 days, 3x EC50
Method: (§1) Brains of chronically infected mice were collected, homogenized with seven strokes in a glass homogenizer, and then enumerated on a Delta Vision microscope [protocol adapted from reference ([45])]. Twenty-five cysts per plate were then placed in a tube for acid/pepsin (170 mM sodium chloride, 60 mM hydrochloric acid, and 0.1 mg/mL pepsin) treatment for 10 minutes in a 37°C water bath. The cysts were then neutralized with 94 mM Na2CO3. The liberated bradyzoites were then equally distributed into a 12-well plate. For the growth assay, the cells were grown in the presence of compounds or DMSO for 12 and 14 days undisturbed. For the viability assays, the cells were treated with compounds or DMSO for 4 hours before being washed with 1× PBS and then grown for 12 and 14 days in media without compounds. After 12 and 14 days, the cells were fixed with 100% ethanol and stained with 2.5× crystal violet. The control DMSO plaque image is duplicated from Fig. 2B to be used as the representative image of plaques in Fig. 2A. Plaques were quantified on a light microscope using the 4× objective and the size of the plaques was measured using Fiji (ImageJ) software.

[4] = system: ex vivo bradyzoites of the Pru strain from chronically infected mice; experiment: Ex vivo bradyzoite growth assay, Pru; type: cell-based, Toxoplasma gondii; conditions: 3x EC50
Method: as §1

[5] = system: in vitro differentiated Me49 bradyzoites (cysts); experiment: Vacuole size of in vitro differentiated Me49 cysts (DBA/SAG1 IFA); type: cell-based, Toxoplasma gondii; conditions: 4 days, ambient CO2
Method: (§2) Type II Me49 or Pru was differentiated using compound 1 as previously described ([50]). Confluent HFF monolayers on glass coverslips (preincubated for 2 hours with 3 µM compound 1, as described previously) were infected with 5 × 10^3 tachyzoites of the ME49 or Pru (type 2) or EGS (type I/III) strain (no compound 1 for EGS). The cells were allowed to grow and differentiate in a 37°C incubator with ambient CO2 for 3 days (EGS was allowed to spontaneously differentiate for 4 days). […] After 7 days (Me49) or 8 days (EGS) of incubation, the cells were fixed with 3% paraformaldehyde for 10 minutes, permeabilized with 0.25% Triton X-100 for 10 minutes, and then blocked in 3% bovine serum albumin for 1 hour. The coverslips were then incubated in DBA rhodamine (for Me49)([51]) or DBA lectin (a kind gift from Diego Huet for EGS) and anti-SAG1 rat antibody (a kind gift from Vern Carruthers) for 2 hours. Then, the secondary anti-rat 488 was used to visualize the SAG1 antibody. The cells were then mounted onto microscope slides with fluoromount and DAPI (4′,6-diamidino-2-phenylindole). The slides were placed in the fridge for a minimum of 24 hours before imaging on a Delta Vision microscope. The vacuole sizes were calculated using ImageJ software.

[6] = system: type I/III EGS strain cysts; experiment: Vacuole size of spontaneously formed EGS cysts; type: cell-based, Toxoplasma gondii; conditions: EGS spontaneous cysts, 3x EC50, 4 days
Method: as §2

[7] = system: in vitro differentiated Me49 bradyzoites; experiment: In vitro bradyzoite viability assay (plaques); type: cell-based, Toxoplasma gondii; conditions: Me49 bradyzoites treated 4 days at 3x and 5x EC50, then plaques 14 or 16 days, vs DMSO
Method: The protocol for in vitro viability assay was adapted from Zwicker et al. ([52]). Confluent HFF monolayers (preincubated for 2 hours with 3 µM compound 1) were infected with 5 × 10^3 tachyzoites of the ME49 (type 2) strain. After 24 hours, the compound 1 was removed to avoid toxicity to the host cells. The cells were allowed to grow and differentiate in a 37°C incubator with ambient CO2 for 3 days. […] After 7 days of differentiation, the cysts were collected by scraping the monolayers, syringe lysing the parasites, and treatment with acid/pepsin (170 mM sodium chloride, 60 mM hydrochloric acid, and 0.1 mg/mL pepsin) for 30 minutes in a 37°C water bath. The cysts were then neutralized with 94 mM sodium carbonate (Na2CO3) and enumerated. Ten thousand bradyzoites were plated per well in a six-well plate and allowed to grow undisturbed in a 37°C incubator with 5% CO2 for 14 or 16 days. At this time, cultures were fixed with 100% ethanol and stained with 2.5× crystal violet. The control DMSO plaque image is duplicated from Fig. 1E to be used as the representative image of plaques in Fig. 1D. Plaques were quantified using a light microscope using the 4× objective.

[8] = system: Pru-GFP brain tissue cysts in Balb/c mice; experiment: Treatment of Balb/c mice chronically infected with Pru-GFP; conditions: Balb/c mice, 1,500 Pru-GFP i.p., 1 mg/kg/day i.p. for 16 days from 28 dpi
Method: BALB/c male mice (Jackson Laboratory) were injected i.p. with a 200 µL suspension of 1,500 tachyzoites of the Pru-GFP strain T. gondii (type II genotype) (a gift from Laura Knoll). […] At 4 weeks post-infection, the brains of two mice were collected to check for the presence of cysts and to confirm that the mice were in the chronic stage. At this time, the remaining mice were injected i.p. daily for 16 consecutive days with 200 µL solvent (10% Kolliphor HS-15) or compounds dissolved in 10% HS-15. […] Mice were euthanized humanely 2 weeks after the final injection. The mouse brains were collected in 1 mL sterile PBS, minced with scissors, and homogenized using a glass homogenizer. Four 20 µL samples (80 µL total or 8% of sample) of each brain homogenate were placed on a glass microscope slide. Cysts were enumerated using a Delta Vision fluorescence microscope.

[9] = system: Me49-RFP brain tissue cysts in Swiss Webster mice; experiment: Treatment of Swiss Webster mice chronically infected with Me49-RFP; type: in vivo, Toxoplasma gondii; conditions: Swiss Webster mice, 5,000 Me49-RFP i.p., BPH-1218 at 1 mg/kg daily for 16 days
[10] = system: ex vivo bradyzoites of the Pru strain from chronically infected mice; experiment: Ex vivo bradyzoite viability assay, Pru; type: cell-based, Toxoplasma gondii; conditions: 3x EC50
Method: as §1

[11] = system: in vitro derived Pru cysts; experiment: Vacuole size of in vitro derived Pru cysts; type: cell-based, Toxoplasma gondii
Method: as §2

[12] = system: RH-RFP tachyzoites in Swiss Webster mice; experiment: Mice infected with a lethal dose of T. gondii (acute infection); type: in vivo, Toxoplasma gondii; conditions: 100 RH-RFP tachyzoites i.p., daily i.p. treatment for 10 days starting 6 hours after infection
Method: Experiments were carried out as described previously ([16]) using 100 T. gondii tachyzoites of the RH td-Tomato strain (RH-RFP) to infect female Swiss Webster mice. Drugs were dissolved in 10% Kolliphor HS-15 and were inoculated i.p. starting 6 hours after infection and administered for 10 days. The survival of mice was monitored along with their weight. Mice were sacrificed if they lost over 20% of their body weight. Surviving mice were challenged on day 30 post-infection with 10,000 RH-RFP tachyzoites. Blood was collected at 30 dpi (before challenge) and at the time of euthanasia (3 weeks post challenge) to analyze the presence of T. gondii antibodies. To test for antibodies, we ran a western blot with RH-RFP lysate protein and probed the membrane with the serum collected from the mice. Protein extraction and western blot conditions were as done previously ([20]). After blocking with 5% milk in PBS-T (0.1% Tween 20 in phosphate buffered saline [PBS]), we washed the membrane three times for 5 minutes with PBS-T and attached it to the BioRad multiscreen tool. The RH-RFP lysate was ran throughout the whole gel to allow for testing of different serum (antibodies) on the same membrane. […]

T. gondii = system: T. gondii; set-up: method as in PMID 17069459; conditions: cited from earlier work

Compound | activity of infected mice (nightly average energy, CageDot) [1] | protection against lethal acute infection [2] | number of plaques, ex vivo viability [3] | number of plaques, ex vivo growth [4] | vacuole size ([5]; 3x EC50 against tachyzoites) | vacuole size ([5]; 5x EC50 against tachyzoites) | size of the vacuoles (cysts) [6] | number of plaques (bradyzoite viability) [7] | reduction of cyst burden [8] [%] | reduction of cyst burden [9] [%] | number of plaques, ex vivo viability [10] | vacuole size [11] | protection against lethal acute infection (survival) [12] | induction of bradyzoite-specific antigen 1 (T. gondii) | replication of T. gondii (T. gondii)
CCCCCCCCCCn1cc[n+](CC(P(=O)([O-])O)P(=O)(O)O)c1 (stereo not drawn) [BPH-1218] | decreased the activity of the infected mice to similar levels of the control uninfected mice | protected mice against a lethal acute infection | reduced the viability of ex vivo bradyzoites | significant reduction in the number of plaques | showed the same effect on vacuole size | diminished vacuole size | reduced the size of the vacuoles | plaque number was significantly reduced | 74.0 | 73.6 | significant reduction in the number of plaques | decreased the vacuole size | – | – | –
CCCCCCCCCCCn1cc[n+](CC(O)(P(=O)([O-])O)P(=O)(O)O)c1 (stereo not drawn) [BPH-1236] | – | – | reduced the viability of ex vivo bradyzoites | significant reduction in the number of plaques | – | diminished vacuole size | reduced the size of the vacuoles | plaque number was significantly reduced | – | – | significant reduction in the number of plaques | – | protected mice against the acute infection | – | –
CCCCCCCCCn1cc[n+](CC(O)(P(=O)([O-])O)P(=O)(O)O)c1 (stereo not drawn) [BPH-1238] | – | – | reduced the viability of ex vivo bradyzoites | significant reduction in the number of plaques | – | diminished vacuole size | reduced the size of the vacuoles | plaque number was significantly reduced | – | – | significant reduction in the number of plaques | – | – | – | –
CN1CCC(c2cc(-c3ccncc3)c(-c3ccc(F)cc3)[nH]2)CC1 [Compound 1, 4-[2-(4-fluorophenyl)-5-(1-methylpiperidine-4-yl)-1H-pyrrol-3-yl]pyridine] | – | – | – | – | – | – | – | – | – | – | – | – | – | potent inducer of bradyzoite-specific antigen 1 | dramatically slow the replication
